Measured values taken from EP3928779A1 (Chugai Seiyaku Kabushiki Kaisha, priority 2014, dated 2016).

Test system: rat small-intestinal brush border membrane vesicles
Assay: Inhibitory effect on 33PO4 uptake into rat small-intestinal brush border membrane vesicles (rapid filtration method)
Format: biochemical
Conditions: 33PO4 uptake into rat small-intestinal BBMVs; test compound 1 µM; reacted for 60 seconds
Procedure: Brush border membrane vesicles (BBMVs) were prepared using the upper region of the small intestine of each Wistar female rat (4-5 weeks old). […] The ^33PO4 transport activity of the small-intestinal BBMVs was determined by the rapid filtration method. […] Then, ice-cold buffer C (110 mM NaCl, 1 mM KH2PO4, and 10 mM HEPES (pH 7.5)) was added to each reaction mixture, which was immediately suctionfiltered through a Millipore filter. The filter was washed with buffer C, and each sample was then dissolved in a liquid scintillator. The amount of ^33PO4 uptake into BBMVs was measured using a liquid scintillation counter. […]

First: 1-[(2,3-Difluorophenyl)methyl]-4a-ethyl-4-hydroxy-N-[5-methyl-2-(trifluoromethyl)furan-3-yl]-2-oxo-5,6,7,8-tetrahydropyrido[1,2-b]pyridazine-3-carboxamide [Example 19]
Second: 1-[(3-Fluorophenyl)methyl]-4-hydroxy-4a-methyl-N-[5-methyl-2-(trifluoromethyl)furan-3-yl]-2-oxo-5,6,7,8-tetrahydropyrido[1,2-b]pyridazine-3-carboxamide [Example 18]
The “Rate of uptake inhibition (%) (1 µM)” value of the first is higher: 41% for the first, 12% for the second.

Compared with `Cc1cc(NC(=O)C2=C(O)[C@@H]3CCCN3N(Cc3cccc(F)c3)C2=O)c(C(F)(F)F)o1` [Example 1, (4aS)-1-[(3-Fluorophenyl)methyl]-4-hydroxy-N-[5-methyl-2-(trifluoromethyl)furan-3-yl]-2-oxo-4a,5,6,7-tetrahydropyrrolo[1,2-b]pyridazine-3-carboxamide], `Cc1cc(NC(=O)C2=C(O)[C@H]3CCCN3N(Cc3cccc(F)c3)C2=O)c(C(F)(F)F)o1` [Example 2, (4aR)-1-[(3-Fluorophenyl)methyl]-4-hydroxy-N-[5-methyl-2-(trifluoromethyl)furan-3-yl]-2-oxo-4a,5,6,7-tetrahydropyrrolo[1,2-b]pyridazine-3-carboxamide] is lower in “Rate of uptake inhibition (%) (1 µM)” value: 28% for the first, 19% for the second.

First: Cc1cc(NC(=O)C2=C(O)[C@@H]3CC(C)(C)CN3N(Cc3cccc(F)c3)C2=O)c(C(F)(F)F)o1 [Example 3]
Second: Cc1cc(NC(=O)C2=C(O)[C@@H]3CCC(C)(C)N3N(Cc3cccc(F)c3)C2=O)c(C(F)(F)F)o1 [Example 4, (4aS)-1-[(3-Fluorophenyl)methyl]-4-hydroxy-7,7-dimethyl-N-[5-methyl-2-(trifluoromethyl)furan-3-yl]-2-oxo-5.6-dihydro-4aH-pyrrolo[1,2-b]pyridazine-3-carboxamide]
The “Rate of uptake inhibition (%) (1 µM)” value of the first is lower: 11% for the first, 32% for the second.

Going from `COCCN(C)CCOc1ccc(CN2C(=O)C(C(=O)Nc3ccc(C(F)(F)F)cc3-c3cc(C(F)(F)F)ncn3)=C(O)C3(CCC3)N2C)c(F)c1F` [Example 13, 6-[[2,3-Difluoro-4-[2-[2-methoxyethyl(methyl)amino]ethoxy]phenyl]methyl]-9-hydroxy-5-methyl-7-oxo-N-[4-(trifluoromethyl)-2-[6-(trifluoromethyl)pyrimidin-4-yl]phenyl]-5,6-diazaspiro[3.5]non-8-ene-8-carboxamide] to `Cc1cc(NC(=O)C2=C(O)[C@H]3CCCCN3N(Cc3cccc(F)c3)C2=O)c(C(F)(F)F)o1` [Example 15, (4aR)-1-[(3-Fluorophenyl)methyl]-4-hydroxy-N-[5-methyl-2-(trifluoromethyl)furan-3-yl]-2-oxo-5,6,7,8-tetrahydro-4aH-pyrido[1,2-b]pyridazine-3-carboxamide], the “Rate of uptake inhibition (%) (1 µM)” value falls from 58% to 42%.

Compared with `C[C@]12CCCN1N(Cc1cccc(F)c1F)C(=O)C(C(=O)Nc1ccc(C(F)(F)F)cc1-c1cc(C(F)(F)F)ncn1)=C2O` [Example 21, (4aR)-1-[(2,3-Difluorophenyl)methyl]-4-hydroxy-4a-methyl-2-oxo-N-[4-(trifluoromethyl)-2-[6-(trifluoromethyl)pyrimidin-4-yl]phenyl]-6,7-dihydro-5H-pyrrolo[1,2-b]pyridazine-3-carboxamide], `Cc1c(C#N)ncnc1-c1cc(C(F)(F)F)ccc1NC(=O)C1=C(O)[C@@]2(C)CCCN2N(Cc2ccc(OCCN3CCOCC3)c(F)c2F)C1=O` [Example 22, (4aR)-N-[2-(6-Cyano-5-methylpyrimidin-4-yl)-4-(trifluoromethyl)phenyl]-1-[[2,3-ditluoro-4-(2-morpholin-4-ylethoxy)phenyl]methyl]-4-hydroxy-4a-methyl-2-oxo-6,7-dihydro-5H-pyrrolo[1,2-b]pyridazine-3-carboxamide] is lower in “Rate of uptake inhibition (%) (1 µM)” value: 61% for the first, 50% for the second.

`C[C@]12CCCN1N(Cc1cccc(F)c1F)C(=O)C(C(=O)Nc1ccc(C(F)(F)F)cc1-c1ncnc(C#N)c1Cl)=C2O` [Example 23] was tested, and the “Rate of uptake inhibition (%) (1 µM)” value was 84%.
